Literature values, collected in patent US11129554B2, “Sweat monitoring and control of drug delivery” (University Of Cincinnati, priority 2014, dated 2021).

test system: not given; conditions: in vivo

Row | Molecule | half-life
1 | COc1ccc2c(c1)[C@]13CCCC[C@@H]1[C@H](C2)N(C)CC3 [DM, Dextromethorphan] | 2 to 4 h
2 | CN1C(=O)CC[C@H]1c1cccnc1 [cotinine] | about 20 hours

test system: beta-adrenoceptors; conditions: not given

Row | Molecule | beta-blocking activity
3 | CC(C)NC[C@H](O)COc1cccc2ccccc12 [1-Propranolol] | has beta-adrenoceptors blocking action
4 | COc1ccccc1OCCNCC(O)COc1cccc2[nH]c3ccccc3c12 (stereo not drawn) [Carvedilol S(−) isomer, Carvedilol] | nonselective beta-adrenoceptor blocker
5 | CC(CCc1ccccc1)NCC(O)c1ccc(O)c(C(N)=O)c1 [Labetalol (R, R) isomer, Labetalol] | potent beta-blocker
6 | CC(CCc1ccccc1)NCC(O)c1ccc(O)c(C(N)=O)c1 [Labetalol (R, S) isomer, Labetalol] | relatively inactive
7 | CC(CCc1ccccc1)NCC(O)c1ccc(O)c(C(N)=O)c1 [Labetalol (S, S) isomer, Labetalol] | relatively inactive
8 | OC(CNCC(O)C1CCc2cc(F)ccc2O1)C1CCc2cc(F)ccc2O1 (stereo not shown) [Nebivolol] | highly selectively beta-1-blocking effects
9 | CC(C)NCC(O)c1ccc(NS(C)(=O)=O)cc1 [Sotalol D-isomer, Sotalol] | no beta-blocking activity
10 | CC(C)NCC(O)c1ccc(NS(C)(=O)=O)cc1 [Sotalol L-isomer, Sotalol] | has beta-blocking activity
11 | CC(C)NC[C@@H](O)COc1cccc2ccccc12 [d-propranolol] | inactive

test system: alpha-blocking; conditions: not given

Row | Molecule | alpha-blocking activity
12 | COc1ccccc1OCCNCC(O)COc1cccc2[nH]c3ccccc3c12 (single isomer, unassigned) [Carvedilol R(+) isomer, Carvedilol] | approximately equally alpha-blocking potency
13 | COc1ccccc1OCCNCC(O)COc1cccc2[nH]c3ccccc3c12 (stereo not drawn) [Carvedilol S(−) isomer, Carvedilol] | approximately equally alpha-blocking potency
14 | CC(CCc1ccccc1)NCC(O)c1ccc(O)c(C(N)=O)c1 [Labetalol (S, R) isomer, Labetalol] | potent alpha-blocker
15 | S-Timolol | more a potent alpha-blocker than R-timolol

test system: not given; conditions: dye clearance tests

Row | Molecule | resolution of excretion in sweat
16 | carboxyethyl-hydroxychroman [CEHC] | 2 to 3 min
